Assay results from ChEMBL document CHEMBL1145498, “A systematic interaction map of validated kinase inhibitors with Ser/Thr kinases” (Proc Natl Acad Sci U S A, 2007).

molecular target: Serine/threonine-protein kinase 26 (Homo sapiens) (UniProt Q9P289)
Sequence (Q9P289 2-416 limits assumed): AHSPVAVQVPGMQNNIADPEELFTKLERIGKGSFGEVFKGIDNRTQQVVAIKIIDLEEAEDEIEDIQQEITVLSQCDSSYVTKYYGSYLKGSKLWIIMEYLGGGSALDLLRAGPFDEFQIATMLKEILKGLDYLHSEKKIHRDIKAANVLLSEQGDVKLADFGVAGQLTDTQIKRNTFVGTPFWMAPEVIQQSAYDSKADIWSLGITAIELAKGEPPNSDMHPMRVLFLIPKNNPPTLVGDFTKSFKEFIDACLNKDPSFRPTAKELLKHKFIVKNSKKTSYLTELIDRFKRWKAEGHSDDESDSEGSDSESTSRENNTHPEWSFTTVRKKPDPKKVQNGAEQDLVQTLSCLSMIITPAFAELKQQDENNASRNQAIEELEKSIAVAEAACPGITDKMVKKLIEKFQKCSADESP

| ΔTm [°C] | Compound |
| --- | --- |
| 1 | Cc1ccc(NC(=O)c2ccc(CN3CCN(C)CC3)cc2)cc1Nc1nccc(-c2cccnc2)n1 |
| 0.9 | COc1ccc(COc2ccc(Cc3cnc(N)nc3N)cc2OC)cc1 |
| 4.7 | CCN(CC)CCNC(=O)c1c(C)[nH]c(/C=C2\C(=O)Nc3ccc(F)cc32)c1C |

molecular target: T1, Lymphokine-activated killer T-cell-originated protein kinase (Homo sapiens) (UniProt Q96KB5)
T1 sequence (whole entry): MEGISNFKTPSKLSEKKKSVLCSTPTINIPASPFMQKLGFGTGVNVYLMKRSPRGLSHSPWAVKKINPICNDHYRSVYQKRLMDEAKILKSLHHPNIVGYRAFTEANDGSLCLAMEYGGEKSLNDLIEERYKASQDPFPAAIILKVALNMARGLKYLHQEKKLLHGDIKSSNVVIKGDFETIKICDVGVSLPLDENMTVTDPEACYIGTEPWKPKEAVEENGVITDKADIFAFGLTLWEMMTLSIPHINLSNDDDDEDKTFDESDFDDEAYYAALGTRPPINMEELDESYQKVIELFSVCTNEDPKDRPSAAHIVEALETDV

| Compound | ΔTm [°C] |
| --- | --- |
| Cc1ccc(NC(=O)c2ccc(CN3CCN(C)CC3)cc2)cc1Nc1nccc(-c2cccnc2)n1 | 0.8 |
| COc1ccc(COc2ccc(Cc3cnc(N)nc3N)cc2OC)cc1 | -0.1 |
| CCN(CC)CCNC(=O)c1c(C)[nH]c(/C=C2\C(=O)Nc3ccc(F)cc32)c1C | 0.4 |

molecular target: T2, Serine/threonine-protein kinase 17A (Homo sapiens) (UniProt Q9UEE5)
T2 sequence (whole entry): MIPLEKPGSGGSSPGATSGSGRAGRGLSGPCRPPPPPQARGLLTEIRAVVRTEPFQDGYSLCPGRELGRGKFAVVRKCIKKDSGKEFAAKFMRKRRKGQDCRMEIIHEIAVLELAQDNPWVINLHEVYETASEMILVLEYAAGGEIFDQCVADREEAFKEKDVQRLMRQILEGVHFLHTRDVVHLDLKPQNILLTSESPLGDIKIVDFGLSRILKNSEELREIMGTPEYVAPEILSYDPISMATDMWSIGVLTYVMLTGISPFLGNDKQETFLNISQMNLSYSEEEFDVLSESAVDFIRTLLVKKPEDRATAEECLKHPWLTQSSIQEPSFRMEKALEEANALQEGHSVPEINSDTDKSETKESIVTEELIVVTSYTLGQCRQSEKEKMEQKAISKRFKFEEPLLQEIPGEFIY

| ΔTm [°C] | Compound |
| --- | --- |
| 1.3 | Cc1ccc(NC(=O)c2ccc(CN3CCN(C)CC3)cc2)cc1Nc1nccc(-c2cccnc2)n1 |
| -0.4 | COc1ccc(COc2ccc(Cc3cnc(N)nc3N)cc2OC)cc1 |
| 8.3 | CCN(CC)CCNC(=O)c1c(C)[nH]c(/C=C2\C(=O)Nc3ccc(F)cc32)c1C |

molecular target: Serine/threonine-protein kinase pim-3 (Homo sapiens) (UniProt Q86V86)

| ΔTm [°C] | Compound |
| --- | --- |
| 0.2 | Cc1ccc(NC(=O)c2ccc(CN3CCN(C)CC3)cc2)cc1Nc1nccc(-c2cccnc2)n1 |
| 0 | COc1ccc(COc2ccc(Cc3cnc(N)nc3N)cc2OC)cc1 |
| 7.1 | CCN(CC)CCNC(=O)c1c(C)[nH]c(/C=C2\C(=O)Nc3ccc(F)cc32)c1C |

molecular target: Ribosomal protein S6 kinase alpha-3 (Homo sapiens) (UniProt P51812)
Sequence (P51812 whole entry): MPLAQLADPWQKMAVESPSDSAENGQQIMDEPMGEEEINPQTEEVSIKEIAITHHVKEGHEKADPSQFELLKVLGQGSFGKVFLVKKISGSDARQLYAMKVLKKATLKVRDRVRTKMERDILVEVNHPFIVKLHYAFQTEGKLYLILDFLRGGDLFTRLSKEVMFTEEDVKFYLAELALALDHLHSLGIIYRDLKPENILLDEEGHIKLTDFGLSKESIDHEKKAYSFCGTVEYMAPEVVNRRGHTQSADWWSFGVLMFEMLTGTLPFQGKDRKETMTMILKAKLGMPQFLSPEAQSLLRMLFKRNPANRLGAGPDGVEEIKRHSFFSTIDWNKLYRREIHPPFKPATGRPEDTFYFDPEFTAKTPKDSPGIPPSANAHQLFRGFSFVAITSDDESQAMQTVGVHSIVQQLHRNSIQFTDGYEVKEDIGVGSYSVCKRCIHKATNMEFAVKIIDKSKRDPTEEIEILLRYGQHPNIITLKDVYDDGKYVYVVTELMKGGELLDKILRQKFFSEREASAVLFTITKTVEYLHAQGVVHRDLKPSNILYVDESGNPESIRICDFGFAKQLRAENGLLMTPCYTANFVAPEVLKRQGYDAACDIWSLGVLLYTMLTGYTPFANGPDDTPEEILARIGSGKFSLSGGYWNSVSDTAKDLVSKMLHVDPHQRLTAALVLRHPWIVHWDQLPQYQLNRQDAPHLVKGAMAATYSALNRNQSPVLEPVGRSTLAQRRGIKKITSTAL

| ΔTm [°C] | Compound |
| --- | --- |
| -0.4 | Cc1ccc(NC(=O)c2ccc(CN3CCN(C)CC3)cc2)cc1Nc1nccc(-c2cccnc2)n1 |
| -0.2 | COc1ccc(COc2ccc(Cc3cnc(N)nc3N)cc2OC)cc1 |
| 8.6 | CCN(CC)CCNC(=O)c1c(C)[nH]c(/C=C2\C(=O)Nc3ccc(F)cc32)c1C |

molecular target: Serine/threonine-protein kinase 26 (Homo sapiens) (UniProt Q9P289); remark: another data set of the same source

| ΔTm [°C] | Compound |
| --- | --- |
| -0.3 | Cc1ccc(NC(=O)c2ccc(CN3CCN(C)CC3)cc2)cc1Nc1nccc(-c2cccnc2)n1 |
| 0 | COc1ccc(COc2ccc(Cc3cnc(N)nc3N)cc2OC)cc1 |
| -0.1 | CCN(CC)CCNC(=O)c1c(C)[nH]c(/C=C2\C(=O)Nc3ccc(F)cc32)c1C |

molecular target: Calcium/calmodulin-dependent protein kinase type 1D (Homo sapiens) (UniProt Q8IU85)

| ΔTm [°C] | Compound |
| --- | --- |
| 0.4 | Cc1ccc(NC(=O)c2ccc(CN3CCN(C)CC3)cc2)cc1Nc1nccc(-c2cccnc2)n1 |
| 0.1 | COc1ccc(COc2ccc(Cc3cnc(N)nc3N)cc2OC)cc1 |

molecular target: Serine/threonine-protein kinase pim-1 (Homo sapiens) (UniProt P11309)
Sequence (P11309 whole entry, looked up): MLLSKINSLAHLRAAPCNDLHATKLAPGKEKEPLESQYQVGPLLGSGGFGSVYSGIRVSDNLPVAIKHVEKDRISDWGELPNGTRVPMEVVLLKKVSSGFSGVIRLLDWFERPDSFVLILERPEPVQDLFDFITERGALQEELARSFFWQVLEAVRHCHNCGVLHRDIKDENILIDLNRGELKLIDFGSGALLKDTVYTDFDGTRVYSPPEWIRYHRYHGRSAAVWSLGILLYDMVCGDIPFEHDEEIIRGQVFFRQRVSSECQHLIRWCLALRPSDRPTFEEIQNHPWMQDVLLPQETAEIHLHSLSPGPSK

| ΔTm [°C] | Compound |
| --- | --- |
| -0.1 | Cc1ccc(NC(=O)c2ccc(CN3CCN(C)CC3)cc2)cc1Nc1nccc(-c2cccnc2)n1 |
| 0 | COc1ccc(COc2ccc(Cc3cnc(N)nc3N)cc2OC)cc1 |
| 2.3 | CCN(CC)CCNC(=O)c1c(C)[nH]c(/C=C2\C(=O)Nc3ccc(F)cc32)c1C |

molecular target: Dual specificity mitogen-activated protein kinase kinase 2 (Homo sapiens, UniProt P36507)
Sequence (P36507 whole entry): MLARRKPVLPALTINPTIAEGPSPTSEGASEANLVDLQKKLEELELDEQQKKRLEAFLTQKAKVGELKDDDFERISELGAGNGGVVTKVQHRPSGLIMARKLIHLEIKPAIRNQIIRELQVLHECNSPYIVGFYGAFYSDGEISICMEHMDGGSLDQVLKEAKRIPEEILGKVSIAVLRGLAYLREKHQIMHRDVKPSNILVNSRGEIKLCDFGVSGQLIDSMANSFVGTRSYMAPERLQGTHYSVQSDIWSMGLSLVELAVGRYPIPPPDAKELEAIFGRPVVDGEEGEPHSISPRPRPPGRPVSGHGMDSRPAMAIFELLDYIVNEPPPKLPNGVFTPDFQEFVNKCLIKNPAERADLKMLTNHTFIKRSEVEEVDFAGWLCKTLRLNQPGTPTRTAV

| ΔTm [°C] | Compound |
| --- | --- |
| 0.3 | Cc1ccc(NC(=O)c2ccc(CN3CCN(C)CC3)cc2)cc1Nc1nccc(-c2cccnc2)n1 |
| 0 | COc1ccc(COc2ccc(Cc3cnc(N)nc3N)cc2OC)cc1 |
| 2.2 | CCN(CC)CCNC(=O)c1c(C)[nH]c(/C=C2\C(=O)Nc3ccc(F)cc32)c1C |

molecular target: Serine/threonine-protein kinase OSR1 (Homo sapiens) (UniProt O95747)
Sequence (O95747 2-527 limits assumed): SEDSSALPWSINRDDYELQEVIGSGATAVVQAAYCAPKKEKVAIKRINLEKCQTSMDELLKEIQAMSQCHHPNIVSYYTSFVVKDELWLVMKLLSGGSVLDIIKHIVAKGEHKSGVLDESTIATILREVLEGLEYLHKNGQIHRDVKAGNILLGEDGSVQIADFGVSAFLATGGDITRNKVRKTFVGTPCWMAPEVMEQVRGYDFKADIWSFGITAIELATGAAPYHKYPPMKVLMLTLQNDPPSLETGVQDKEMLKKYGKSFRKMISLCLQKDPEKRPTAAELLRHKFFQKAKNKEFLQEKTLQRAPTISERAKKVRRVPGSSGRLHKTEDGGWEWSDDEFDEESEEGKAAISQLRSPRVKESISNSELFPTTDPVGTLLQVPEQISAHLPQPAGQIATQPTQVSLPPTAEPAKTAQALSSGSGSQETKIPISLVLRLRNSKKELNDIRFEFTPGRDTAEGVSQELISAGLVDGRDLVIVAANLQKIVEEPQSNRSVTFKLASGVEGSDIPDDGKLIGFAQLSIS

| ΔTm [°C] | Compound |
| --- | --- |
| 0.7 | Cc1ccc(NC(=O)c2ccc(CN3CCN(C)CC3)cc2)cc1Nc1nccc(-c2cccnc2)n1 |
| 0.3 | COc1ccc(COc2ccc(Cc3cnc(N)nc3N)cc2OC)cc1 |
| 3 | CCN(CC)CCNC(=O)c1c(C)[nH]c(/C=C2\C(=O)Nc3ccc(F)cc32)c1C |

molecular target: T3, Serine/threonine-protein kinase VRK1 (Homo sapiens) (UniProt Q99986)
T3 sequence (whole entry): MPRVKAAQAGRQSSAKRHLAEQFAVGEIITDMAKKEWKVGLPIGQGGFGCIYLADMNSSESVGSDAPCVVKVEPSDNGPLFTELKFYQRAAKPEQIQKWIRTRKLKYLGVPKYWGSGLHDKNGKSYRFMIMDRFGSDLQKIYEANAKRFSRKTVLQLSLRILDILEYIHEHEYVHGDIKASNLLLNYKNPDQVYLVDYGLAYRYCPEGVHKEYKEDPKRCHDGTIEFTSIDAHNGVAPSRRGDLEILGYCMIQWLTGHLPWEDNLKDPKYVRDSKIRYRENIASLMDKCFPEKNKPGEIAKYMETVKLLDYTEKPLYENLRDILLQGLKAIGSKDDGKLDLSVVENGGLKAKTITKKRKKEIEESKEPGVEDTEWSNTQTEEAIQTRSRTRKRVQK

| ΔTm [°C] | Compound |
| --- | --- |
| 0.4 | Cc1ccc(NC(=O)c2ccc(CN3CCN(C)CC3)cc2)cc1Nc1nccc(-c2cccnc2)n1 |
| -0.2 | COc1ccc(COc2ccc(Cc3cnc(N)nc3N)cc2OC)cc1 |
| 6.8 | CCN(CC)CCNC(=O)c1c(C)[nH]c(/C=C2\C(=O)Nc3ccc(F)cc32)c1C |

molecular target: Serine/threonine-protein kinase PAK 5 (Homo sapiens) (UniProt Q9P286)

| ΔTm [°C] | Compound |
| --- | --- |
| -0.6 | Cc1ccc(NC(=O)c2ccc(CN3CCN(C)CC3)cc2)cc1Nc1nccc(-c2cccnc2)n1 |
| -0.2 | COc1ccc(COc2ccc(Cc3cnc(N)nc3N)cc2OC)cc1 |
| 1.7 | CCN(CC)CCNC(=O)c1c(C)[nH]c(/C=C2\C(=O)Nc3ccc(F)cc32)c1C |

molecular target: Calcium/calmodulin-dependent protein kinase type II subunit gamma (Homo sapiens) (UniProt Q13555)
Sequence (Q13555 whole entry): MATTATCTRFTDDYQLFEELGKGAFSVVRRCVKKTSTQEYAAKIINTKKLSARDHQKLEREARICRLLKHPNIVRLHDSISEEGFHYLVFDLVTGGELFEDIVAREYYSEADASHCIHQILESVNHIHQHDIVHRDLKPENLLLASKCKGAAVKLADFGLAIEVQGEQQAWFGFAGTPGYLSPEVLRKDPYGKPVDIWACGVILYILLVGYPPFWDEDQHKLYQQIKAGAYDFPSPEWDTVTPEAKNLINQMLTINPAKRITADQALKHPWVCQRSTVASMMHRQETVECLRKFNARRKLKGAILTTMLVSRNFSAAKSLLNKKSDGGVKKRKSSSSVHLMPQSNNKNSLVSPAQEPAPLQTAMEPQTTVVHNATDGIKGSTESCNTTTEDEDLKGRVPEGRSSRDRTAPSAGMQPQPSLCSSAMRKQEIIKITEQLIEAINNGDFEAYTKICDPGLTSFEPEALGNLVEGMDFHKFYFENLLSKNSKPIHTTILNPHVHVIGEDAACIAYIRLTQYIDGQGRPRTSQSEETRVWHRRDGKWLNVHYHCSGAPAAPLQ

| ΔTm [°C] | Compound |
| --- | --- |
| 0.8 | Cc1ccc(NC(=O)c2ccc(CN3CCN(C)CC3)cc2)cc1Nc1nccc(-c2cccnc2)n1 |
| 0.2 | COc1ccc(COc2ccc(Cc3cnc(N)nc3N)cc2OC)cc1 |
| 5.2 | CCN(CC)CCNC(=O)c1c(C)[nH]c(/C=C2\C(=O)Nc3ccc(F)cc32)c1C |

molecular target: Dual specificity protein kinase CLK2 (Homo sapiens) (UniProt P49760)

| ΔTm [°C] | Compound |
| --- | --- |
| -0.2 | COc1ccc(COc2ccc(Cc3cnc(N)nc3N)cc2OC)cc1 |
| 5.9 | CCN(CC)CCNC(=O)c1c(C)[nH]c(/C=C2\C(=O)Nc3ccc(F)cc32)c1C |

molecular target: Calcium/calmodulin-dependent protein kinase type II subunit delta (Homo sapiens) (UniProt Q13557)
Sequence (Q13557 whole entry): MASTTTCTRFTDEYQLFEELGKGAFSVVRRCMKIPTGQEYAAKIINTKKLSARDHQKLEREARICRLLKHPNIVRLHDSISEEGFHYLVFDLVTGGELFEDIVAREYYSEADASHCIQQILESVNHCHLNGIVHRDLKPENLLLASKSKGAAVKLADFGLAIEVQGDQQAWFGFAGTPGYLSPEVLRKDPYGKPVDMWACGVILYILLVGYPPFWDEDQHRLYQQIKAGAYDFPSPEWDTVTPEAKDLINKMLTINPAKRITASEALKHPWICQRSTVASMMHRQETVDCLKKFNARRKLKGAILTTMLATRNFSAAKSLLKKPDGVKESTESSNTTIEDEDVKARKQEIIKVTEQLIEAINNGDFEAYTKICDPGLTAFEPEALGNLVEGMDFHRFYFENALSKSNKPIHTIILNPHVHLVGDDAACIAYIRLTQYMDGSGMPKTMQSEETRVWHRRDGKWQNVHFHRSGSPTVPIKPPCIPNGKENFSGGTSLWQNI

| ΔTm [°C] | Compound |
| --- | --- |
| 0.3 | Cc1ccc(NC(=O)c2ccc(CN3CCN(C)CC3)cc2)cc1Nc1nccc(-c2cccnc2)n1 |
| -0.2 | COc1ccc(COc2ccc(Cc3cnc(N)nc3N)cc2OC)cc1 |
| 2.3 | CCN(CC)CCNC(=O)c1c(C)[nH]c(/C=C2\C(=O)Nc3ccc(F)cc32)c1C |

molecular target: Death-associated protein kinase 3 (Homo sapiens) (UniProt O43293)
Sequence (O43293 whole entry, looked up): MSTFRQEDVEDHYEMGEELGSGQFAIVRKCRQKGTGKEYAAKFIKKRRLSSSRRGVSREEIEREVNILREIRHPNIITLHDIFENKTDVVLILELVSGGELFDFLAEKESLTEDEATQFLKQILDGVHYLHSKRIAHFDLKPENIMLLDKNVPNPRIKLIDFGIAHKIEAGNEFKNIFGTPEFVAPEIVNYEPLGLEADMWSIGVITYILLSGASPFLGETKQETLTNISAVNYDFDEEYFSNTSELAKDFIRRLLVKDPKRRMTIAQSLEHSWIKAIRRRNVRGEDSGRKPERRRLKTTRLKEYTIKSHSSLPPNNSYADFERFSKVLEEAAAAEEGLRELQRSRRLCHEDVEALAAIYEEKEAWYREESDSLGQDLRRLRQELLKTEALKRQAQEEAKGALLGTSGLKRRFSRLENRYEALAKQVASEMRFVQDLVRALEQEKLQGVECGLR

| Compound | ΔTm [°C] |
| --- | --- |
| Cc1ccc(NC(=O)c2ccc(CN3CCN(C)CC3)cc2)cc1Nc1nccc(-c2cccnc2)n1 | 2.8 |
| COc1ccc(COc2ccc(Cc3cnc(N)nc3N)cc2OC)cc1 | 0.3 |
| CCN(CC)CCNC(=O)c1c(C)[nH]c(/C=C2\C(=O)Nc3ccc(F)cc32)c1C | 0.3 |

molecular target: T4, Myotonin-protein kinase (Homo sapiens) (UniProt Q09013)
T4 sequence (whole entry): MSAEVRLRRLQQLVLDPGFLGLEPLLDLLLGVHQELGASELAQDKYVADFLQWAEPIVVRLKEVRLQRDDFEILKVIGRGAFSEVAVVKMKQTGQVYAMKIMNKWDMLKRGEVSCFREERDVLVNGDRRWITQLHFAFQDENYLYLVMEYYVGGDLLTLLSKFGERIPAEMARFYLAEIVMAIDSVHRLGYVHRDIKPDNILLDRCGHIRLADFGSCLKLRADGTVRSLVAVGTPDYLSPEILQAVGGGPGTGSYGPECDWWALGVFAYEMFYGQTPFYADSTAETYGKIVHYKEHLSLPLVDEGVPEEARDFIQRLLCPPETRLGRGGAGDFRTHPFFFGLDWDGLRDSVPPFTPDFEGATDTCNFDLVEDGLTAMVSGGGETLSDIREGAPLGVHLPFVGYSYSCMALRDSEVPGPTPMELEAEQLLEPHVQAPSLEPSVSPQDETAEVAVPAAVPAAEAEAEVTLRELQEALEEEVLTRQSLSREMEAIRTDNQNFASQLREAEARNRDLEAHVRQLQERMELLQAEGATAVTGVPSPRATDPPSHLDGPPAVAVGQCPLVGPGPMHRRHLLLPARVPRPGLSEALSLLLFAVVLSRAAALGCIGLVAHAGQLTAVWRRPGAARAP

| ΔTm [°C] | Compound |
| --- | --- |
| 0.6 | Cc1ccc(NC(=O)c2ccc(CN3CCN(C)CC3)cc2)cc1Nc1nccc(-c2cccnc2)n1 |
| 0.1 | COc1ccc(COc2ccc(Cc3cnc(N)nc3N)cc2OC)cc1 |
| 2.7 | CCN(CC)CCNC(=O)c1c(C)[nH]c(/C=C2\C(=O)Nc3ccc(F)cc32)c1C |

molecular target: Serine/threonine-protein kinase pim-2 (Homo sapiens, UniProt Q9P1W9)
Sequence (Q9P1W9 whole entry, looked up): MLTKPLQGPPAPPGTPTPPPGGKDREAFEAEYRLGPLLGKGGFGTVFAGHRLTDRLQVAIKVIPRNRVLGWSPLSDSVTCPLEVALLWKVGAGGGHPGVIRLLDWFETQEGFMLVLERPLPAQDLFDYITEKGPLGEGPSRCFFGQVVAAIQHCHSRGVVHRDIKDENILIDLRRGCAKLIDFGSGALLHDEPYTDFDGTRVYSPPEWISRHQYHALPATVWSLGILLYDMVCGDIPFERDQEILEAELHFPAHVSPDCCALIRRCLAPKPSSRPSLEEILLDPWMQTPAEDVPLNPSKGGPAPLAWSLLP

| ΔTm [°C] | Compound |
| --- | --- |
| 0.6 | Cc1ccc(NC(=O)c2ccc(CN3CCN(C)CC3)cc2)cc1Nc1nccc(-c2cccnc2)n1 |
| 0.2 | COc1ccc(COc2ccc(Cc3cnc(N)nc3N)cc2OC)cc1 |
| 0 | CCN(CC)CCNC(=O)c1c(C)[nH]c(/C=C2\C(=O)Nc3ccc(F)cc32)c1C |

molecular target: Mitogen-activated protein kinase 11 (Homo sapiens, UniProt Q15759)
Sequence (Q15759 whole entry): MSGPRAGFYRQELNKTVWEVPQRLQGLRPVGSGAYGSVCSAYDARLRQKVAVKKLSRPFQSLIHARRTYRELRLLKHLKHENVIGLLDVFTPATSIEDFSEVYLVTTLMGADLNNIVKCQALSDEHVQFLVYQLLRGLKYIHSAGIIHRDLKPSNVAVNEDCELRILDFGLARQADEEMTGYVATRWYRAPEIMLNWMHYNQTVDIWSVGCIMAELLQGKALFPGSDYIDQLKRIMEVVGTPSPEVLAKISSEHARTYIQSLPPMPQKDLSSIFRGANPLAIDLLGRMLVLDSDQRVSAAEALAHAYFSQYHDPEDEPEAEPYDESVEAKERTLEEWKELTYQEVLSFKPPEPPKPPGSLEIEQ

| ΔTm [°C] | Compound |
| --- | --- |
| -0.5 | Cc1ccc(NC(=O)c2ccc(CN3CCN(C)CC3)cc2)cc1Nc1nccc(-c2cccnc2)n1 |
| -0.1 | COc1ccc(COc2ccc(Cc3cnc(N)nc3N)cc2OC)cc1 |
| 0.1 | CCN(CC)CCNC(=O)c1c(C)[nH]c(/C=C2\C(=O)Nc3ccc(F)cc32)c1C |
